Assay results: patent publication US20220167618A1, “PESTICIDALLY ACTIVE AZOLE-AMIDE COMPOUNDS” (SYNGENTA CROP PROTECTION AG, priority 2019, published 2022)

Legend:
Format in all cases: in vivo
[1] = test system: Plutella xylostella (Diamond Back Moth); test: Example B5: Plutella xylostella (diamond back moth), artificial diet, 24-well; conditions: 192 h, application rate 200 ppm, eggs, 8 days after infestation, read-out: control in at least one of the two categories (mortality or growth inhibition)
Description: Example B5: Plutella xylostella (Diamond Back Moth)
24-well microtiter plates with artificial diet were treated with aqueous test solutions prepared from 10′000 ppm DMSO stock solutions by pipetting. After drying, Plutella eggs were pipetted through a plastic stencil onto a gel blotting paper and the plate was closed with it. The samples were assessed for mortality and growth inhibition in comparison to untreated samples 8 days after infestation.

[2] = test system: Chilo suppressalis (Striped Rice Stemborer); test: Example B4: Chilo suppressalis (striped rice stemborer), artificial diet; conditions: 144 h, application rate 200 ppm, L2 larvae, 6 days after infestation, read-out: control in at least one of the three categories (mortality, anti-feedant or growth inhibition)
Description: Example B4: Chilo suppressalis (Striped Rice Stemborer)
24-well microtiter plates with artificial diet were treated with aqueous test solutions prepared from 10′000 ppm DMSO stock solutions by pipetting. After drying, the plates were infested with L2 larvae (6-8 per well). The samples were assessed for mortality, anti-feeding effect, and growth inhibition in comparison to untreated samples 6 days after infestation. Control of Chilo suppressalis by a test sample is given when at least one of the categories mortality, anti-feedant effect, and growth inhibition is higher than the untreated sample.

[3] = test system: Spodoptera littoralis (Egyptian Cotton Leaf Worm); test: Example B9: Spodoptera littoralis (Egyptian cotton leaf worm), sprayed cotton leaf discs; conditions: foliar, 72 h, application rate 200 ppm, L1 larvae, 3 days after infestation, read-out: control in at least one of the three categories (mortality, anto-feedant or growth inhibition)
[4] = test system: Diabrotica balteata (Corn Root Worm); test: Example B1: Diabrotica balteata (corn root worm), sprayed maize sprouts; conditions: 96 h, application rate 200 ppm, L2 larvae, 4 days after infestation, read-out: control in at least one of the two categories (mortality or growth inhibition)
Description: Example B1: Diabrotica balteata (Corn Root Worm)
Maize sprouts placed onto an agar layer in 24-well microtiter plates were treated with aqueous test solutions prepared from 10′000 ppm DMSO stock solutions by spraying. After drying, the plates were infested with L2 larvae (6 to 10 per well). The samples were assessed for mortality and growth inhibition in comparison to untreated samples 4 days after infestation.

CC(NC(=O)c1cc(C2CC2)cc(C(F)(F)F)c1)c1nc(Br)nn1-c1ccc(OCC(F)(F)F)cn1 (stereo not drawn) [Compound P28, N-[1-[5-bromo-2-[5-(2,2,2-trifluoroethoxy)-2-pyridyl]-1,2,4-triazol-3-yl]ethyl]-3-cyclopropyl-5-(trifluoromethyl)benzamide]
≥ 80%: percent control (mortality or growth inhibition) at 200 ppm [1] | percent control (mortality, anti-feedant or growth inhibition) at 200 ppm [2]

CC(NC(=O)c1cc(C2CC2C(F)(F)F)cc(C(F)(F)F)c1)c1nc(Br)nn1-c1ccc(C#N)cn1 (stereo not drawn) [Compound P16, N-[1-[5-bromo-2-(5-cyano-2-pyridyl)-1,2,4-triazol-3-yl]ethyl]-3-(trifluoromethyl)-5-[2-(trifluoromethyl)cyclopropyl]benzamide]
≥ 80%: percent control (mortality, anti-feedant or growth inhibition) at 200 ppm [3] | percent control (mortality or growth inhibition) at 200 ppm [1] | percent control (mortality, anti-feedant or growth inhibition) at 200 ppm [2] | percent control (mortality or growth inhibition) at 200 ppm [4]

CC(NC(=O)c1cc(C2CC2)cc(C(F)(F)F)c1)c1nc(Br)nn1-c1ccc(C#N)cn1 (stereo not drawn) [Compound P19, N-[1-[5-bromo-2-(5-cyano-2-pyridyl)-1,2,4-triazol-3-yl]ethyl]-3-cyclopropyl-5-(trifluoromethyl)benzamide]
≥ 80%: percent control (mortality, anti-feedant or growth inhibition) at 200 ppm [3] | percent control (mortality or growth inhibition) at 200 ppm [1] | percent control (mortality, anti-feedant or growth inhibition) at 200 ppm [2] | percent control (mortality or growth inhibition) at 200 ppm [4]

CC(NC(=O)c1cc(C(F)(F)F)cc(C2(C#N)CC2)c1)c1nc(Br)nn1-c1ncc(OCC(F)F)cn1 (stereo not drawn) [Compound P3, N-[1-[5-bromo-2-[5-(2,2-difluoroethoxy)pyrimidin-2-yl]-1,2,4-triazol-3-yl]ethyl]-3-(1-cyanocyclopropyl)-5-(trifluoromethyl)benzamide]
≥ 80%: percent control (mortality, anti-feedant or growth inhibition) at 200 ppm [3] | percent control (mortality or growth inhibition) at 200 ppm [1] | percent control (mortality, anti-feedant or growth inhibition) at 200 ppm [2] | percent control (mortality or growth inhibition) at 200 ppm [4]

CC(NC(=O)c1cc(C2CC2(F)F)cc(C(F)(F)F)c1)c1nc(Br)nn1-c1ccc(OCC(F)(F)F)cn1 (stereo not drawn) [Compound P29, N-[1-[5-bromo-2-[5-(2,2,2-trifluoroethoxy)-2-pyridyl]-1,2,4-triazol-3-yl]ethyl]-3-(2,2-difluorocyclopropyl)-5-(trifluoromethyl)benzamide]
≥ 80%: percent control (mortality or growth inhibition) at 200 ppm [1] | percent control (mortality, anti-feedant or growth inhibition) at 200 ppm [2]

CC(NC(=O)c1cc(C2CC2C(F)(F)F)cc(C(F)(F)F)c1)c1nc(Br)nn1-c1ncc(OCC(F)F)cn1 (stereo not drawn) [Compound P13, N-[1-[5-bromo-2-[5-(2,2-difluoroethoxy)pyrimidin-2-yl]-1,2,4-triazol-3-yl]ethyl]-3-(trifluoromethyl)-5-[2-(trifluoromethyl)cyclopropyl]benzamide]
≥ 80%: percent control (mortality, anti-feedant or growth inhibition) at 200 ppm [3] | percent control (mortality or growth inhibition) at 200 ppm [1] | percent control (mortality, anti-feedant or growth inhibition) at 200 ppm [2] | percent control (mortality or growth inhibition) at 200 ppm [4]

CC(NC(=O)c1cc(C(F)(F)F)cc(C(C)(C)C#N)c1)c1nc(Br)nn1-c1ccc(OCC(F)(F)F)cn1 (stereo not drawn) [Compound P41, N-[1-[5-bromo-2-[5-(2,2,2-trifluoroethoxy)-2-pyridyl]-1,2,4-triazol-3-yl]ethyl]-3-(1-cyano-1-methyl-ethyl)-5-(trifluoromethyl)benzamide]
≥ 80%: percent control (mortality or growth inhibition) at 200 ppm [1] | percent control (mortality, anti-feedant or growth inhibition) at 200 ppm [2]

CC(NC(=O)c1cc(C2CC2)nc(C(F)(F)F)c1)c1nc(Br)nn1-c1ccc(C#N)cn1 (stereo not drawn) [Compound P20, N-[1-[5-bromo-2-(5-cyano-2-pyridyl)-1,2,4-triazol-3-yl]ethyl]-2-cyclopropyl-6-(trifluoromethyl)pyridine-4-carboxamide]
≥ 80%: percent control (mortality, anti-feedant or growth inhibition) at 200 ppm [3] | percent control (mortality or growth inhibition) at 200 ppm [1] | percent control (mortality, anti-feedant or growth inhibition) at 200 ppm [2] | percent control (mortality or growth inhibition) at 200 ppm [4]

CC(NC(=O)c1cc(C(F)(F)F)cc(C2(C#N)CC2)c1)c1nc(Br)nn1-c1ncc(OCC(F)(F)F)cn1 (stereo not drawn) [Compound P10, N-[1-[5-bromo-2-[5-(2,2,2-trifluoroethoxy)pyrimidin-2-yl]-1,2,4-triazol-3-yl]ethyl]-3-(1-cyanocyclopropyl)-5-(trifluoromethyl)benzamide]
≥ 80%: percent control (mortality, anti-feedant or growth inhibition) at 200 ppm [3] | percent control (mortality or growth inhibition) at 200 ppm [1] | percent control (mortality, anti-feedant or growth inhibition) at 200 ppm [2] | percent control (mortality or growth inhibition) at 200 ppm [4]

CC(NC(=O)c1cc(C(F)(F)F)cc(S(=O)(=O)C(F)(F)F)c1)c1nc(Br)nn1-c1ccc(C#N)cn1 (stereo not drawn) [Compound P17, N-[1-[5-bromo-2-(5-cyano-2-pyridyl)-1,2,4-triazol-3-yl]ethyl]-3-(trifluoromethyl)-5-(trifluoromethylsulfonyl)benzamide]
≥ 80%: percent control (mortality, anti-feedant or growth inhibition) at 200 ppm [3] | percent control (mortality or growth inhibition) at 200 ppm [1] | percent control (mortality, anti-feedant or growth inhibition) at 200 ppm [2] | percent control (mortality or growth inhibition) at 200 ppm [4]

CC(NC(=O)c1cc(C(F)(F)F)nc(C2(C#N)CC2)c1)c1nc(Br)nn1-c1ccc(C#N)cn1 (stereo not drawn) [Compound P2, N-[1-[5-bromo-2-(5-cyano-2-pyridyl)-1,2,4-triazol-3-yl]ethyl]-2-(1-cyanocyclopropyl)-6-(trifluoromethyl)pyridine-4-carboxamide]
≥ 80%: percent control (mortality, anti-feedant or growth inhibition) at 200 ppm [3] | percent control (mortality or growth inhibition) at 200 ppm [1] | percent control (mortality, anti-feedant or growth inhibition) at 200 ppm [2] | percent control (mortality or growth inhibition) at 200 ppm [4]

CC(NC(=O)c1cc(C(F)(F)F)cc(C(F)(F)C2CC2)c1)c1nc(Br)nn1-c1ccc(C#N)cn1 (stereo not drawn) [Compound P21, N-[1-[5-bromo-2-(5-cyano-2-pyridyl)-1,2,4-triazol-3-yl]ethyl]-3-[cyclopropyl(difluoro)methyl]-5-(trifluoromethyl)benzamide]
≥ 80%: percent control (mortality, anti-feedant or growth inhibition) at 200 ppm [3] | percent control (mortality or growth inhibition) at 200 ppm [1] | percent control (mortality, anti-feedant or growth inhibition) at 200 ppm [2] | percent control (mortality or growth inhibition) at 200 ppm [4]

CC(NC(=O)c1cc(C(F)(F)F)cc(C(F)(F)C2CC2)c1)c1nc(Br)nn1-c1ncc(OCC(F)F)cn1 (stereo not drawn) [Compound P15, N-[1-[5-bromo-2-[5-(2,2-difluoroethoxy)pyrimidin-2-yl]-1,2,4-triazol-3-yl]ethyl]-3-[cyclopropyl(difluoro)methyl]-5-(trifluoromethyl)benzamide]
≥ 80%: percent control (mortality, anti-feedant or growth inhibition) at 200 ppm [3] | percent control (mortality or growth inhibition) at 200 ppm [1] | percent control (mortality, anti-feedant or growth inhibition) at 200 ppm [2] | percent control (mortality or growth inhibition) at 200 ppm [4]

CC(NC(=O)c1cc(C2CC2)cc(C(F)(F)F)c1)c1nc(Br)nn1-c1ccc(OC(F)F)cn1 (stereo not drawn) [Compound P25, N-[1-[5-bromo-2-[5-(difluoromethoxy)-2-pyridyl]-1,2,4-triazol-3-yl]ethyl]-3-cyclopropyl-5-(trifluoromethyl)benzamide]
≥ 80%: percent control (mortality, anti-feedant or growth inhibition) at 200 ppm [3] | percent control (mortality or growth inhibition) at 200 ppm [1] | percent control (mortality, anti-feedant or growth inhibition) at 200 ppm [2] | percent control (mortality or growth inhibition) at 200 ppm [4]

CC(NC(=O)c1cc(C(F)(F)F)cc(C2(C#N)CC2)c1)c1nc(Br)nn1-c1ccc(OCC(F)(F)F)cn1 (stereo not drawn) [Compound P23, N-[1-[5-bromo-2-[5-(2,2,2-trifluoroethoxy)-2-pyridyl]-1,2,4-triazol-3-yl]ethyl]-3-(1-cyanocyclopropyl)-5-(trifluoromethyl)benzamide]
≥ 80%: percent control (mortality, anti-feedant or growth inhibition) at 200 ppm [3] | percent control (mortality or growth inhibition) at 200 ppm [1] | percent control (mortality, anti-feedant or growth inhibition) at 200 ppm [2]

CC(NC(=O)c1cc(C(F)(F)F)cc(C(F)(F)C2CC2)c1)c1nc(Br)nn1-c1ncc(OCC(F)(F)F)cn1 (stereo not drawn) [Compound P9, N-[1-[5-bromo-2-[5-(2,2,2-trifluoroethoxy)pyrimidin-2-yl]-1,2,4-triazol-3-yl]ethyl]-3-[cyclopropyl(difluoro)methyl]-5-(trifluoromethyl)benzamide]
≥ 80%: percent control (mortality, anti-feedant or growth inhibition) at 200 ppm [3] | percent control (mortality or growth inhibition) at 200 ppm [1] | percent control (mortality, anti-feedant or growth inhibition) at 200 ppm [2]

CC(NC(=O)c1cc(C(F)(F)F)cc(C(C)(C)C#N)c1)c1nc(Br)nn1-c1ncc(OCC(F)(F)F)cn1 (stereo not drawn) [Compound P39, N-[1-[5-bromo-2-[5-(2,2,2-trifluoroethoxy)pyrimidin-2-yl]-1,2,4-triazol-3-yl]ethyl]-3-(1-cyano-1-methyl-ethyl)-5-(trifluoromethyl)benzamide]
≥ 80%: percent control (mortality, anti-feedant or growth inhibition) at 200 ppm [3] | percent control (mortality or growth inhibition) at 200 ppm [1] | percent control (mortality, anti-feedant or growth inhibition) at 200 ppm [2] | percent control (mortality or growth inhibition) at 200 ppm [4]
